In brackets after ≈: the same amount, converted by molar mass. Entries after “also recorded” stand apart in the source; their conditions may differ.
Legend:
[1] = clinical studies; cited from earlier work
[2] = Single oral dose plasma pharmacokinetics in healthy subjects; format: in vivo, human; details: fasted, mean
[3] = test system: FGR5; assay: FGR5 effects
[4] = Multiple oral dose plasma pharmacokinetics in healthy subjects
[5] = test system: rat ANIT-induced cholestasis model; assay: Chronic treatment rat ANIT model: serum markers of cholestasis and liver damage; format: in vivo; details: 14 days oral dosing; AST, ALT, bilirubin, bile acids in serum
Method: Rats were treated with alpha-naphthyl-isothiocyanate (ANIT) (0.1% w/w) in food for 3 days prior to treatment with the compound at the indicated doses or with vehicle control (“Veh”). A non-cholestatic control group was fed standard chow diet without ANIT, and serve as the non-cholestatic control animals (“Control”). After 14 days of oral dosing, the indicated analyte was measured in serum. LLQ, lower limit of quantitation. Mean±SEM; n=5.
(§1) Male Wistar rats were treated with ANIT (0.1% ANIT in chow diet) for 2 weeks. […] The serum samples were collected on day 14 for analysis of biomarkers of hepatobiliary injury (including ALT, AST, bilirubin and bile acids). The PK samples (pre-dose, 0.5, 1, 3, 7, 10 and 24 h, n=3/dose group) were taken on day 13 (at steady-state).

[6] = test system: rat ANIT-induced cholestasis model; assay: PK/PD modeling of effective exposure in rat ANIT model; format: in vivo; details: for IC80 (total bilirubin): 2-week rat ANIT chronic treatment model, serum total bilirubin, Inhibitory effect Imax model
Method: as §1
The mean biomarker data were compared to the PK data (average concentration at each dose) for the modeling. The IC80 was determined using the Inhibitory effect Imax model (effect C=0 at Imax, C=infinity at E0) built in Phoenix WinNonlin 6.3 software. […] Therefore, we chose to use a mean of the IC80 for the four biomarkers (total bilirubin, total bile acids, ALT and AST) as the IC80 for efficacy in this model. From these studies, the IC80 of LJN452 was 0.127 ng/ml and the corresponding AUCO-24h was 3.05 ng*h/ml (Table 1), and the corresponding efficacious dose is approximately 0.01 mg/kg (based on Table 1 and Table 2).
The PK samples (pre-dose, 0.5, 1, 3, 7, 10 and 24 h, n=3/dose group) were taken on day 13 (at steady-state). AUCO-24h was determined using Phoenix WinNonlin 6.3 software and the average concentrations were calculated from mean of AUCO-24h at each dose (divided the AUCO-24h by 24 h). The individual biomarker data were compared to the PK data (average concentration at each dose) for the modeling. Since the lowest dose (0.01 mg/kg) already approached maximal efficacy, the IC80 was chosen as the measurement of the efficacious exposure (Table 1). The IC80 was determined using the Inhibitory effect Imax model (effect C=0 at Imax, C=infinity at E0) built in Phoenix WinNonlin 6.3 software.

[7] = test system: FGF15; assay: Serum FGF15 (MSD assay) in chronic treatment rat ANIT model; format: in vivo
Method: Serum FGF15 levels were quantified using an FGF15 Meso Scale Discovery (MSD) assay. Mouse FGF15 antibody from R&D Systems (AF6755) was used both as capture and detection antibody in the assay. MSD SULFO-TAG NHS-Ester was used to label the FGF15 antibody. MSD standard 96-well plates were coated with the FGF15 capture antibody and the plates were blocked with MSD Blocker A (R93AA-2). After washing the plate with PBS+0.05% Tween 20, MSD diluent 4 was dispensed into each well and incubated for 30 min. 25 μl of calibrator dilutions or samples (serum or EDTA plasma) were dispensed into each well and incubated with shaking at RT. After washing, detection antibody was added and incubated with shaking for 1 h at RT. After washing and the addition of MSD Read buffer (R92TC-2), the plate was read on an MSD SECTOR Imager 6000. Plots of the standard curve and unknown samples were calculated using MSD data analysis software.
Activation of FXR in the ileum induces the expression of fibroblast growth factor 15 (FGF15 in rodent; FGF19 in human), a hormone that is secreted in the portal blood and signals to the liver to repress Cyp7a1 expression synergistically with SHP. The direct FXR-dependent induction of FGF15/19 along with FGF15/19's anti-cholestatic properties makes it a convenient serum biomarker for detecting target engagement of FXR agonists.

[8] = Estimation of human efficacious dose from rat efficacious exposure and human PK; format: in vivo; details: human, plasma, oral; at dose of ~6 μg; read-out: Cmax at estimated human efficacious dose
Method: The human efficacy dose was calculated based on the efficacious exposure in the rat ANIT-induced disease model. Since the in vitro potency and protein binding between human and rat were similar, the EC80 exposure in human was assumed to be the same as that in rat (3.05 ng*h/mL).

[9] = test system: FGF19
[10] = Safety and tolerability in clinical study; format: in vivo, human
Source text: Elevated ALT resolved to within normal levels within 14 days and without intervention.

[11] = exposures for doses 10-100 μg normalized to 10 μg
[12] = maximal drug effect, rat ANIT model

## CC[C@H]1[C@@H](O)[C@@H]2[C@H](CC[C@]3(C)[C@@H]([C@H](C)CCC(=O)O)CC[C@@H]23)[C@@]2(C)CC[C@@H](O)C[C@@H]12 [OCA, 6α-ethyl-chenodeoxycholic acid]
[1]
  pruritus: increased pruritus

## O=C(O)c1cc(F)c2nc(N3C4CC[C@H]3CC(OCc3c(-c5ccccc5OC(F)(F)F)noc3C3CC3)C4)sc2c1 (stereo partly drawn) [Compound A, 2-[(1R,3r,5S)-3-({5-cyclopropyl-3-[2-(trifluoromethoxy)phenyl]-1,2-oxazol-4-yl}methoxy)-8-azabicyclo[3.2.1]octan-8-yl]-4-fluoro-1,3-benzothiazole-6-carboxylic acid]
[2]; single dose 10 μg
  AUCinf: 3.39 ng·h/mL
  AUClast: 2.79 ng·h/mL
  Cmax: 0.186 ng/mL
  T½: 14.9 h
[2]; single dose 30 μg
  AUCinf: 13.4 ng·h/mL
  AUClast: 12.7 ng·h/mL
  Cmax: 0.627 ng/mL
  T½: 13.7 h
[2]; single dose 100 μg
  AUCinf: 37.9 ng·h/mL
  AUClast: 34.8 ng·h/mL
  Cmax: 1.73 ng/mL
  T½: 13.5 h
[2]; single dose 300 μg
  AUCinf: 123 ng·h/mL
  AUClast: 119 ng·h/mL
  Cmax: 6.41 ng/mL
  T½: 15.3 h
[2]; single dose 1000 μg
  AUCinf: 482 ng·h/mL
  AUClast: 416 ng·h/mL
  Cmax: 22.1 ng/mL
  T½: 21.9 h
[2]; single dose 3000 μg
  AUCinf: 933 ng·h/mL
  AUClast: 888 ng·h/mL
  Cmax: 54.2 ng/mL
  T½: 16.5 h
[3]
  FGR5 effects: no FGR5 effects
[4]; [11]
  average AUCtau at day 13 for a dose level of 10 μg: 4.84 ng·h/mL
  average Cmax at day 13 for a dose level of 10 μg: 0.32 ng/mL
[4]; once daily dosing, dose range 10 μg to 100 μg
  dose proportionality of exposure (Cmax and AUC): approximately dose-proportional increase; also recorded: approximately dose proportional increase
[4]; once daily oral dosing, trough levels
  time by which steady-state was reached: ≤ 4 days
[5]
  dose from which hepatobiliary injury indicators improved: ≥ 0.01 mg/kg
[6]
  IC80 (total bilirubin): 0.223 ng/mL (≈ 0.369 nM)
[6]; listed as LJN452
  IC80 (total bilirubin): 8.223 ng/mL (≈ 13.6 nM)
[6]; [12]
  Imax (ALT): 84.2 U/L
  Imax (AST): 140.3 U/L
  Imax (total bile acids): 125.5 µmol/L
  Imax (total bilirubin): 2.0 mg/dL
[7]
  serum FGF15: stimulated serum FGF15 expression; also recorded: Significant dose-dependent induction
[8]
  Cmax: ~0.2 ng/mL
[9]; 30 μg/day
  FGF19 elevations: consistent with pharmacological activity in NASH
[9]; single dose studies 10 μg to 1 mg
  FGF19 dose dependence: Dose-dependent increases
[10]; 100 μg repeated daily
  ALP or bilirubin elevation: no elevation
[10]; clinical study
  findings in physical exam, vital signs or ECGs: No significant findings
[10]; doses up to and including 60 μg
  tolerability in repeated daily administration: well tolerated
